The record followed here is patent publication US20250163056A1, “NONMUSCLE MYOSIN II INHIBITORS” (The University of Florida Research Foundation, Inc., priority 2018, published 2025).

In data set [1] the target is Bovine cardiac myosin (Bos taurus (Bovine), UniProt Q9BE39). The experiment in a line: Cardiac muscle myosin II actin-activated ATPase assay (NADH-coupled). It is filed as biochemical. The arrangement: key to Ratio CMMII:NMII Ki/EC50: NMII-sel: no Ki value for cardiac myosin II could be determined; the compounds had no detectable inhibitory properties versus the cardiac myosin II. The settings on record: for Ratio CMMII:NMII Ki/EC50: cardiac myosin II Ki over nonmuscle myosin II EC50; for Ki: 300 nM cardiac myosin, 10 μM actin, 25° C., read-out: CMMII KI. From the text:
(§1) The cardiac muscle myosin II actin-activated ATPase assay is a biochemical assay. Specifically, it is an NADH (nicotinamide adenine dinucleotide)-coupled ATPase assay that relies on NADH fluorescence as a readout. Cardiac myosin is a mechanochemical energy transducer that hydrolyzes ATP to generate force in the presence of its activator, F-actin. The resulting ADP is regenerated to ATP by pyruvate kinase (PK) that transforms one molecule of phosphoenolpyruvate (PEP) to pyruvate in parallel. Subsequently, pyruvate is reduced to lactate by lactate dehydrogenase (LDH) that, in turn, oxidizes one molecule of NADH to NAD. Therefore, the decrease in NADH concentration as a function of time equals the ATP hydrolysis rate. Bovine cardiac myosin is obtained from a commercial source, Cytoskeleton. PK, LDH, ATP, PEP, and NADH are obtained from Sigma. F-actin is prepared in house from Rabbit Muscle Acetone Powder. The assay is run at 25° C. in 384 well black-wall polystyrene microplates with a total volume of 20 μl per well. NADH fluorescence is monitored for 30 minutes with an EnVision Multimode Plate Reader. The slope of the fluorescence response, which is proportional to the reaction rate, is determined by simple linear regression. Final assay conditions are 300 nM cardiac myosin, 10 μM actin, 40 U/ml LDH, 200 U/ml PK, 220 μM NADH, 1 mM PEP, 1 mM ATP in a buffer containing 10 mM 3-(N-morpholino)propanesulfonic acid (pH=7.0), 2 mM MgCl2, 0.15 mM ethylene glycol-bis(p-aminoethyl ether)-N,N,N′,N′-tetraacetic acid, 0.1 mg/mL bovine serum albumin, 0.5% (V/V) dimethyl sulfoxide (DMSO) and 1 mM dithiothreitol. Prior to testing the inhibitory activity of the compounds, a two-fold dilution series starting at 10 mM compound concentration is prepared in DMSO. Subsequently, 100 nl is transferred to each well of the measuring plate containing a mixture of myosin, LDH and PK. The enzymatic reaction is started with the addition of a mixture containing ATP, PEP, NADH and actin. The highest final compound concentration is 50 uM. 20 μM para-aminoblebbistatin in 0.5% DMSO serves as the positive control and 0.5% DMSO alone is the negative control. Reaction rates are determined by using the fluorescence responses of a dilution series of NADH included in all plates and plotted as a function of inhibitor concentration. All measurements are carried out in triplicate. Inhibitory constants are determined by fitting the 16 point dose-response data to a quadratic equation corresponding to a simple one-to-one binding model.

Data set [2] addresses Rabbit skeletal myosin. The experiment in a line: Skeletal muscle myosin II actin-activated ATPase assay. It is filed as biochemical. The settings on record: 20 nM skeletal muscle myosin II; read-out: SKMMII KI.
Description: as §1
The skeletal muscle myosin II actin-activated ATPase assay is performed the same as for cardiac muscle myosin II with the following exceptions: Rabbit skeletal myosin is obtained from Cytoskeleton and the final assay conditions contain 20 nM skeletal muscle myosin II.

A short description of data set [3]: Photostability, percentage remaining undegraded under illumination or in the dark. The settings on record: for Photostability 4 hours: percentage remaining undegraded after 4 hours illumination; for Photostability 24 hours: percentage remaining undegraded after 24 hours illumination; for Photostability Dark (24 h): percentage remaining undegraded in the dark.

Structures are written as SMILES.

Sequence of Bovine cardiac myosin (Q9BE39 whole entry): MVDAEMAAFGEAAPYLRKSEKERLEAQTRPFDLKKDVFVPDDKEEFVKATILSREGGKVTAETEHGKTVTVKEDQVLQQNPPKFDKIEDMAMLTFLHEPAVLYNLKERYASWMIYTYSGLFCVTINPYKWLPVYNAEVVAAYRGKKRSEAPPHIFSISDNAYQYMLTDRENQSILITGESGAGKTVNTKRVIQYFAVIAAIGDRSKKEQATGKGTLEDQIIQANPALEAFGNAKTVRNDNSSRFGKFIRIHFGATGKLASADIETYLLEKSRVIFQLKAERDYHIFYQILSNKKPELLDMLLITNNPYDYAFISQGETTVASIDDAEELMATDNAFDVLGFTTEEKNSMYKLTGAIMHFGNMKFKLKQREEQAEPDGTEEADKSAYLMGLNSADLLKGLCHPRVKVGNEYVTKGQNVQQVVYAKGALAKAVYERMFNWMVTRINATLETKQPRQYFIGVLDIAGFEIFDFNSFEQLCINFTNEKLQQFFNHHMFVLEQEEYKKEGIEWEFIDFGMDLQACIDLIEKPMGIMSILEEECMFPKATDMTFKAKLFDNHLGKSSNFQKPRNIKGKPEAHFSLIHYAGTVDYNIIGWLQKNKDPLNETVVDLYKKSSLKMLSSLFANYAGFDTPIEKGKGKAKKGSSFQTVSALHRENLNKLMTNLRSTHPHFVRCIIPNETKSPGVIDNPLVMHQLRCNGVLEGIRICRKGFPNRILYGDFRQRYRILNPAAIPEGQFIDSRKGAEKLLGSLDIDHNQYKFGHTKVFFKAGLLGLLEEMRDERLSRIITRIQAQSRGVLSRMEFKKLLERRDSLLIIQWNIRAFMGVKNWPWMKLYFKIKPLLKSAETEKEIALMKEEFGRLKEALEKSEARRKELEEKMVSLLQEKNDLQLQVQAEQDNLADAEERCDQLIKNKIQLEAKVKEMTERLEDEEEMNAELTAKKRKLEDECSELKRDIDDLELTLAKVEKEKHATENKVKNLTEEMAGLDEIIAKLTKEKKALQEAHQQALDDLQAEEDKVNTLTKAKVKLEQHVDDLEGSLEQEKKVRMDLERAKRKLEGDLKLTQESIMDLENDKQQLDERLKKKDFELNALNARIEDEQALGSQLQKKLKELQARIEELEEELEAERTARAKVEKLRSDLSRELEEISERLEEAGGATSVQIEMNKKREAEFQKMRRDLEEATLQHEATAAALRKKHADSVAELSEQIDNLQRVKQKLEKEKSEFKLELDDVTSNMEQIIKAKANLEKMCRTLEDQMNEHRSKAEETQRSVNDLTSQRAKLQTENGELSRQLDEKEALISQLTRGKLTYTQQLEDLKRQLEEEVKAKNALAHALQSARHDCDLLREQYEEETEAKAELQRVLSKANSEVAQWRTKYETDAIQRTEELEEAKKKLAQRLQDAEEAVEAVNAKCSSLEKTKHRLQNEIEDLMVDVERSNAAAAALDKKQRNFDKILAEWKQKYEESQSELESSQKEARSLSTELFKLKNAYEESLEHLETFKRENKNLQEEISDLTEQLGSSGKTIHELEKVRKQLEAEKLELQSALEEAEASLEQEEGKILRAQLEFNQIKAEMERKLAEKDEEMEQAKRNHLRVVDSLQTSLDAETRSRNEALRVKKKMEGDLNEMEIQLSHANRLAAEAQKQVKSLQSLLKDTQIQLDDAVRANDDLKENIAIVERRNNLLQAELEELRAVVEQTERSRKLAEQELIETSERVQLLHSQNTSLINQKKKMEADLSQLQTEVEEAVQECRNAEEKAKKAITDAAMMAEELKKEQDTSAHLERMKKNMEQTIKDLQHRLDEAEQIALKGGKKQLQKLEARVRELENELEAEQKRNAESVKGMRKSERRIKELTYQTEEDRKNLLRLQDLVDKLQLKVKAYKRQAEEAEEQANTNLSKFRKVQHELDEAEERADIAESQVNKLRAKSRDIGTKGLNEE
Sequence of Bovine cardiac myosin (P85100 whole entry partner): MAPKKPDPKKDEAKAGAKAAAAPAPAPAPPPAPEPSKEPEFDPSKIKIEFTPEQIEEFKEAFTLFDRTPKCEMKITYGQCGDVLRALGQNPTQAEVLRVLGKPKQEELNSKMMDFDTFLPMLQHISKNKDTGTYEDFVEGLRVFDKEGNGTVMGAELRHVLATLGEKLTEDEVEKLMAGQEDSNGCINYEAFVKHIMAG
Sequence of Bovine cardiac myosin (Q3SZE5 whole entry partner): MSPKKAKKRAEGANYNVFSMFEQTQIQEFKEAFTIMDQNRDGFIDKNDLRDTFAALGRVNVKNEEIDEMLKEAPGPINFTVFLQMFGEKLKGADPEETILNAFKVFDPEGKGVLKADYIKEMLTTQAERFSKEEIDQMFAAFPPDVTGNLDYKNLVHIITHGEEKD

`Cc1cc2c(cc1F)C(=O)[C@]1(O)CCN(c3ccc4ncsc4c3)C1=N2` [BPN-0027196]: in data set [1], the “Ratio CMMII:NMII Ki/EC50” value is “NMII-sel”. Also, the Ki in data set [2] was found to be 12 µM. Also, in data set [3], the “Photostability 4 hours” value is on record as 94.9%, the “Photostability 24 hours” value was 7.1% and the “Photostability Dark (24 h)” value was over 99%.

In the case of `Cc1sc2c(c1C)C(=O)[C@]1(O)CCN(c3cccc(Br)c3)C1=N2` [BPN-0026853], the “Ratio CMMII:NMII Ki/EC50” value in data set [1] is recorded as “NMII-sel”. Further, in data set [3], the “Photostability 4 hours” value worked out at 91.2%, the “Photostability 24 hours” value turned out to be 88.2% and the “Photostability Dark (24 h)” value stood at 90.2%.

In the case of `Cc1cc2c(cc1C)C(=O)[C@]1(O)CCN(c3ccc4ccoc4c3)C1=N2` [BPN-0026664], in data set [1], the Ki amounted to 29 µM and the “Ratio CMMII:NMII Ki/EC50” value is 33.3. Also, the Ki in data set [2] worked out at 1.5 µM. In data set [3], the “Photostability 4 hours” value turned out to be 30.3%, the “Photostability 24 hours” value is under 1% and the “Photostability Dark (24 h)” value is recorded as 97.7%.

For `Cc1cc2c(cc1C)C(=O)[C@]1(O)CCN(c3ccc4ncncc4c3)C1=N2` [BPN-0027228], in data set [1], the inhibition constant Ki amounted to 300 µM and the “Ratio CMMII:NMII Ki/EC50” value is reported as 10.7. In data set [2], the Ki turned out to be 4.6 µM. Besides, in data set [3], the “Photostability 4 hours” value is over 99%, the “Photostability 24 hours” value was 89.1% and the “Photostability Dark (24 h)” value was over 99%.

Regarding `CCc1cc(N2CC[C@@]3(O)C(=O)c4cc(C)c(C)cc4N=C23)ccn1` [BPN-0028864], the “Ratio CMMII:NMII Ki/EC50” value in data set [1] is “NMII-sel”. Also, the Ki in data set [2] was 12 µM. Besides, in data set [3], the “Photostability 4 hours” value stood at 97.4%, the “Photostability 24 hours” value came to 88.4% and the “Photostability Dark (24 h)” value worked out at 98.4%.

For the compound `O=C1c2cc(Cl)ccc2NC2N(c3ccc4ccoc4c3)CC[C@@]12O` (some centres unmarked) [BPN-0026401], in data set [1], the Ki is 50 µM and the “Ratio CMMII:NMII Ki/EC50” value was 16.7. In data set [2], the Ki is 3.3 µM. Besides, in data set [3], the “Photostability 4 hours” value is recorded as 81.2%, the “Photostability 24 hours” value amounted to 9.6% and the “Photostability Dark (24 h)” value turned out to be 97.7%.

On to `O=C1c2cc(C(F)(F)F)ccc2N=C2N(c3ccc4ncsc4c3)CC[C@@]12O` [BPN-0027219], for which the “Ratio CMMII:NMII Ki/EC50” value in data set [1] is reported as “NMII-sel”. In addition, in data set [3], the “Photostability 4 hours” value turned out to be 46.2%, the “Photostability 24 hours” value is 3.8% and the “Photostability Dark (24 h)” value is 98.3%.

In the case of `Cc1ccc2c(c1)C(=O)[C@]1(O)CCN(c3ccc4nsnc4c3)C1=N2` [BPN-0027394], in data set [1], the inhibition constant (Ki) is 14 µM and the “Ratio CMMII:NMII Ki/EC50” value is 3.4. Also, the Ki in data set [2] is 1.1 µM. In data set [3], the “Photostability 4 hours” value is 92.2%, the “Photostability 24 hours” value came to 57.2% and the “Photostability Dark (24 h)” value is 98.7%.

On to `Cc1cc2c(cc1C)C(=O)[C@]1(O)CCN(c3cnn(C)c3)C1=N2` [BPN-0026710], for which, in data set [1], the Ki turned out to be 5.2 µM and the “Ratio CMMII:NMII Ki/EC50” value was determined as 3.1. The inhibition constant (Ki) in data set [2] was found to be 0.95 µM. Moreover, in data set [3], the “Photostability 4 hours” value stood at 6.6%, the “Photostability 24 hours” value was under 1% and the “Photostability Dark (24 h)” value is recorded as over 99%.

With `COc1ccc(N2CC[C@@]3(O)C(=O)c4c(sc(C)c4C)N=C23)cc1` [BPN-0026813], in data set [1], the Ki was 1.6 µM and the “Ratio CMMII:NMII Ki/EC50” value stood at 3.1. Also, the Ki in data set [2] turned out to be 0.11 µM. For the same compound, in data set [3], the “Photostability 4 hours” value is 82.0%, the “Photostability 24 hours” value is given as under 1% and the “Photostability Dark (24 h)” value is on record as over 99%.

As for `CCc1cc2c(s1)N=C1N(c3ccc4ncccc4c3)CC[C@@]1(O)C2=O` [BPN-0027217], in data set [1], the Ki was found to be 160 µM and the “Ratio CMMII:NMII Ki/EC50” value was 20.5. In addition, the inhibition constant Ki in data set [2] was 21 µM. Moreover, in data set [3], the “Photostability 4 hours” value was determined as 97.9%, the “Photostability 24 hours” value is listed as 76.0% and the “Photostability Dark (24 h)” value is listed as over 99%.

As to `Cc1cc2cc(N3CC[C@@]4(O)C(=O)c5cc(F)c(C)cc5N=C34)ccc2o1` [BPN-0026726], the “Ratio CMMII:NMII Ki/EC50” value in data set [1] is “NMII-sel”. Further, the Ki in data set [2] amounted to 4.4 µM. In addition, in data set [3], the “Photostability 4 hours” value amounted to 76.3%, the “Photostability 24 hours” value amounted to 24.1% and the “Photostability Dark (24 h)” value is 95.4%.
